# From patent US20060009423A1, “Phosphonate-phosphate and diphosphonate apolipoprotein e modulators” (priority 2002, published 2006)
# Assays:
# [1] = system: apoE plasma levels; assay: ApoE plasma levels in vivo in the rat (ATRA)
# [2] = system: THP-1 cells; assay: In vitro apoE secretion by THP-1 cells (ELISA); assay type: cell-based, human; details: 72 hours incubation, ELISA of culture medium
# Description: The in vitro assay comprises determining the effect of a compound of formula (I) in modulating the secretion of apoE by an apoE secreting cell line (e.g., a monocyte-macrophage cell line such as the THP-1 cell line, a liver derived cell line such as the HepG2 cell line, an intestinal derived cell line such as the CaCo2 cell line, or a brain derived cell line such as the astrocytoma CCF-STTG1 cell line). The experimental details for use of the THP-1 cell line in the in vitro assay are provided below.
# The THP-1 cell line was derived from the peripheral blood of a child with acute monocytic leukaemia and were obtained from the European Collection of Animal Cell Cultures (ECACC, #88081201). […] The cells are grown as non-adherent cells in RPMI 1640 culture medium, 2 mM glutamine, 20 μM 2-mercaptoethanol. Fresh medium is added to maintain cell density between 2 and 9×10^5 cells/ml. […]
# Ninety-six well-microtiter plates are coated by incubating with a 5% gelatin solution from porcine skin, bloom 60 in 50 mM carbonate-bicarbonate buffer, pH9.6 at the concentration of 200 μl/well, for 2 hours at 37° C. The coating solution is carefully removed and the sample to be analyzed was added (100 μl/well) at the appropriate dilution. […] The absorbance at 492 nm versus 620 nm is read on a microplate photometer and the results are then converted in human apoE ng equivalent. […]
# [3] = system: apoE in sciatic nerve; assay: Sciatic nerve tissue apoE levels in vivo, rat model of sciatic injury (ELISA); details: rats, orally, 400 mg/kg/day for 37 days; % change from control
# Protocol: A rat model of sciatic injury was established according to Goodrum & Boudin, 1996. Rats with or without nerve injury were treated orally with compound 1 (400 mg/kg for 5 weeks). The amount of apoE was determined in homogenates of the sciatic nerves by ELISA using a goat anti-apolipoprotein E antibody. A dilution to 1/200 of rat plasma was coated on microtiter plates; apoE was recognized by the polyclonal antibody; the conjugate (anti-goat IgG peroxidase) antibody was then added for substrate biochemical recognition. Apolipoprotein E was expressed as % change from mean control value. Cholesterol was measured with a commercially available enzymatic kit (Bioreac, Switzerland). Results were expressed as % change from control group.
# [4] = system: plasma apoE; assay: Plasma apoE levels in vivo in rats fed a normal diet; design: species or system rat; details: orally, 400 mg/kg per day for 5 days
# Description: A convenient model for the screening of apoE modulating compounds is the model described in Leininger-Muller & Siest, 1996. This model involves the use of rats fed a normal diet. Selected compounds of formula (I) ae submitted to the in vivo rat test. Following are the results for compound 1, diethyl α-(dimethoxyphosphinyl)-p-chlorobenzyl phosphate: [drawing 3]
# Two groups of 4 or 5 OFA rats (Iffa-Credo, France) weighing between 140 g and 160 g were acclimatized for at least one week, allowed UAR food and tap water ad libitum, under a 12/12 hours light/obscurity cycle (7.00 am-7.00 pm) then treated daily between 3.00 pm and 4.00 pm with test compounds ([…]) p.o. in a vehicle volume of 1 ml for 5 days. Compound 1 was given as a suspension in 20% Tween-80 supplemented with 0.5% carboxymethylcellulose. Control group received 1 ml vehicle alone. After a treatment period of 5 days, rats were weighed, sacrificed by decapitation under pentobarbital anesthesia after an overnight fast. Blood was collected on EDTA and plasma was used for analysis. When given orally to rats at the dose of 400 mg/kg per day for 5 days, compound 1 increased plasma apoE by 61±8%.
SMILES,apoE plasma levels observed in vivo in the rat [1],production of apoE by THP-1 cells [2],increase of apoE in the contralateral nerve [3] [%],increase of apoE in the crushed sciatic nerve [3] [%],increase of plasma apoE [4] [%]
"CC1=C(/C=C/C(C)=C/C=C/C(C)=C/C(=O)O)C(C)(C)CCC1 [ATRA, all-trans retinoic acid]",decreased apoE plasma levels,decreased the production of apoE,,,
"CCOP(=O)(OCC)OC(c1ccc(Cl)cc1)P(=O)(OC)OC (stereo not drawn) [compound 1, diethyl α-(dimethoxyphosphinyl)-p-chlorobenzyl phosphate]",,,58,154,61±8
